Measurements as given in patent US12049474B2, “Nucleoside prodrugs and uses related thereto” (Emory University, priority 2019, dated 2024).

Assay: Metabolic stability assay in human liver microsomes (HLM)
Format: in vitro ADME
Conditions: pH 7.4, 3 μM test compound, NADPH, sampled 0-120 min, read-out: HLM t1/2
Experimental: The LC-MS/MS analysis was performed using Agilent 1260 Infinity II HPLC, coupled with an Agilent G6460 triple quadrupole mass spectrometer (Agilent Technologies, USA). All the data were acquired employing Agilent 6460 Quantitative Analysis data processing software.
Reverse-phase HPLC separation for each compound was achieved either on an Agilent Porshell 120 EC-C8 column (2.1×50 mm, 2.7 μm), or on an Agilent Zorbax XDB C18 column (2.1×50 mm, 3.5 μm) with a mobile phase composed of methanol-water-formic acid or acetonitrile-water-formic acid (0.1%) at a flow rate of 0.5 mL/min (changes for some compounds). Each method was developed in the presence of an internal standard (ISTD) d5-7-ethoxy coumarin. The column temperature was maintained at 40° C. for most of the samples otherwise noted. The detection was operated in the Agilent JetStream electrospray positive ionization using multiple reaction monitoring mode (MRM).
Other MS conditions were as follows: dwell time 100 ms; gas flow 10 L/min; nebulizer pressure 45 psi; delta EMV 200 V; fragmentor voltage and collision energy for individual compounds vary.
Test compounds were dissolved in 100% DMSO or 100% MeOH to make 10 mM stock solutions. Verapamil (Sigma Aldrich) aided as a positive control and was dissolved in 100% DMSO to make 10 mM stock solutions. The 10 mM stock solution of test and control compounds were further diluted in potassium phosphate buffer (100 mM, pH 7.4) to 500 μM to ensure the organic solvent content was <0.2%. Human liver microsomes (HLMs) were purchased from Xenotech at 20 mg/mL. NADPH (Sigma Aldrich) 10 mM stocks were prepared in deionized water.
The HLM assay was prepared in a 1.5 mL Eppendorf tube with a final volume of 1100 μL for duplicate runs. Each reaction contained phosphate buffer (928.4 μL), liver microsomes (55 μL), and test compound resulting in a final concentration of 3 μM (6.6 μL of 500 μM). The reaction was initiated with 110 μL of 10 mM NADPH. Aliquots (100 μL) were removed in duplicate at 0, 15, 30, 60, 120 min (for prodrug compounds) and 0, 5, 10, 15, 30 min (verapamil, positive control compound) time intervals and quenched in cold […] of 100% methanol which contained internal standard (ISTD: d5-7-ethoxy coumarin 4 μM). Before centrifugation each of the aliquoted tubes were vortexed to make sure compounds were in the solution. The aliquots were centrifuged at 12,000 g for 5 min and the supernatant removed and placed in an LC-MS vial. Each time point was assessed using LC-MS and the area, based on the extracted ion, was integrated with respect to the ISTD. Positive controls were conducted at a final volume of 550 μL to give each time point in a single run. A no-NADPH negative control with test or control compound was performed in a single run (150 μL) at the longest time point. Controls were processed and analyzed like the test compounds. Each time point was run in duplicates followed by in-between blank washes to avoid the carryover and to equilibrate the column.

First: CCCCCCCCCCCCCCCOCCCCOP(=O)(O)COC(C)Cn1cnc2c(N)ncnc21.N (racemic) [NP-PD-150, Ammonium 4-pentadecoxybutoxy-[[rac-(1R)-2-(6-aminopurin-9-yl)-1-methyl-ethoxy]methyl]phosphinate]
Second: CCCCCCCCCCCCCCOCCCCCOP(=O)(O)COC(C)Cn1cnc2c(N)ncnc21.N (racemic) [NP-PD-154, Ammonium [rac-(1R)-2-(6-aminopurin-9-yl)-1-methyl-ethoxy]methyl-(5-tetradecoxypentoxy)phosphinate]
The half-life at 3 µM of the first is 1.7-fold higher: 48 min for the first, 29 min for the second.

Going from `CCCCCCCCCCCCCCCCCOCCOP(=O)(O)COC(C)Cn1cnc2c(N)ncnc21.N` (racemic) [NP-PD-157, Ammonium 2-heptadecoxyethoxy-[[rac-(1R)-2-(6-aminopurin-9-yl)-1-methyl-ethoxy]methyl]phosphinate] to `CCCCCCCCCCSCCCCCCCCCOP(=O)(O)CO[C@H](C)Cn1cnc2c(N)ncnc21.N` [MD-1-122, Ammonium 9-(decylthio)nonyl (R)-(((1-(6-amino-9H-purin-9-yl)propan-2-yl)oxy)methyl)phosphonate], the half-life at 3 µM falls from 35 min to 13 min (2.7-fold).

`C#CCCCCCCCCCCCCCCSCCCOP(=O)(O)CO[C@H](C)Cn1cnc2c(N)ncnc21` [MD-1-182, Ammonium 3-(hexadec-15-yn-1-ylthio)propyl (R)-(((1-(6-amino-9H-purin-9-yl)propan-2-yl)oxy)methyl) phosphonate] and `CCCCCCCCCCCCCSCCCCCCOP(=O)(O)CO[C@H](C)Cn1cnc2c(N)ncnc21` [MD-1-219, Ammonium 6-(tridecylthio)hexyl (R)-(((1-(6-amino-9H-purin-9-yl)propan-2-yl)oxy)methyl) phosphonate] are within 1.5-fold of each other in half-life at 3 µM: 96 min for the first, 66 min for the second.

`CCCCCCCCCCCCCCCCCCSCCCOP(=O)(O)CO[C@H](C)Cn1cnc2c(N)ncnc21` [MD-1-185, Ammonium 3-(octadecylthio)propyl (R)-(((1-(6-amino-9H-purin-9-yl)propan-2-yl)oxy)methyl) phosphonate] and `CCCCCCCCCCCCCCCCCCCCSCCCOP(=O)(O)CO[C@H](C)Cn1cnc2c(N)ncnc21.N` [MD-1-186, Ammonium 3-(icosylthio)propyl (R)-(((1-(6-amino-9H-purin-9-yl)propan-2-yl)oxy)methyl)phosphonate] cannot be ordered by half-life at 3 µM: over 120 min for the first, over 120 min for the second.
